Earlier results as cited in US6713046B1, “Magnetic resonance imaging agents for the delivery of therapeutic agents” (Research Corporation Technologies, priority 1997, dated 2004).

Settings: thermodynamic stability of the Gd(III) chelate complex; background statement

stability constant (K), formation constant, logK: 28.5
Compound: O=C([O-])CN1CCN(CC(=O)[O-])CCN(CC(=O)O)CCN(CC(=O)[O-])CC1.[Gd+3] [Gd-DOTA]
